Test results from PubChem BioAssay AID1259408 (Genetic Toxicology Data Bank (GENE-TOX), 2018).
The source made the active and inactive calls. No rule for the calls is given here.

Test system: GENE-TOX genotoxicity assays, various organisms and cells
Experiment: GENE-TOX mutagenicity studies
Conditions: for call: Assay Type: In vivo carcinogenicity studies
[1] = Species/Cell Type: Chinese hamster ovary (CHO) cells, Assay Type: Forward gene mutation at the HPRT locus, Assay Code: CHO+, Evaluation Type: Evaluation B (Post-1980)
[2] = Species/Cell Type: Human, Assay Type: Sister-chromatid exchange (SCE) in vitro, Assay Code: SC1+D, Dose Response: With dose response, Evaluation Type: Evaluation B (Post-1980)
[3] = Species/Cell Type: Saccharomyces cerevisiae, Assay Type: Mitotic recombination or gene conversion, Assay Code: YEC+, Evaluation Type: Evaluation A (Pre-1980)
[4] = Species/Cell Type: Arabidopsis species, Assay Type: Gene mutation, Assay Code: ARM-, Evaluation Type: Evaluation A (Pre-1980)
[5] = Species/Cell Type: Drosophila melanogaster, Assay Type: Sex-linked recessive lethal gene mutation, Assay Code: SRLT, Evaluation Type: Evaluation A (Pre-1980)
[6] = Species/Cell Type: Salmonella typhimurium (one or more of the five standard strains: TA98, TA100, TA1535, TA1537, and TA1538), Assay Type: Histidine reverse gene mutation, Ames assay, Assay Code: SAL+*, Activation: With metabolic activation, Evaluation Type: Evaluation A (Pre-1980)
[7] = Species/Cell Type: Salmonella typhimurium (one or more of the five standard strains: TA98, TA100, TA1535, TA1537, and TA1538), Assay Type: Histidine reverse gene mutation, Ames assay, Assay Code: SAL+, Evaluation Type: Evaluation A (Pre-1980)
[8] = Species/Cell Type: Mammalian polychromatic erythrocytes, Assay Type: Micronucleus test, chromosome aberrations, Assay Code: MNTT, Evaluation Type: Evaluation B (Post-1980)
[9] = Species/Cell Type: Salmonella typhimurium (one or more of the five standard strains: TA98, TA100, TA1535, TA1537, and TA1538), Assay Type: Histidine reverse gene mutation, Ames assay, Assay Code: SALT, Evaluation Type: Evaluation A (Pre-1980)
[10] = Species/Cell Type: Schizosaccharomyces pombe, Assay Type: Reverse gene mutation, Assay Code: YEZ+, Evaluation Type: Evaluation A (Pre-1980)
[11] = Species/Cell Type: Nonhuman, Assay Type: Sister-chromatid exchange (SCE) in vitro, Assay Code: SC2+D, Dose Response: With dose response, Evaluation Type: Evaluation A (Pre-1980)

Compound: C1CCNC1
- mutagenic call (Species/Cell Type: Salmonella typhimurium, Assay Type: Forward and reverse gene mutation, host-mediated assay, Assay Code: HMA-, Evaluation Type: Evaluation A (Pre-1980)): inactive; negative

Compound: COc1cc([C@@H]2c3cc4c(cc3[C@@H](O[C@@H]3O[C@@H]5CO[C@@H](c6cccs6)O[C@H]5[C@H](O)[C@H]3O)[C@H]3COC(=O)[C@H]23)OCO4)cc(OC)c1O
- mutagenic call [1]: active; positive
- mutagenic call (Species/Cell Type: Nonhuman, Assay Type: Sister-chromatid exchange (SCE) in vitro, Assay Code: SC2+, Evaluation Type: Evaluation B (Post-1980)): active; positive

Compound: COC(=O)Nc1nc2ccccc2[nH]1
- mutagenic call (Species/Cell Type: Allium cepa, Assay Type: Chromosome aberrations, Assay Code: ALC+, Evaluation Type: Evaluation A (Pre-1980)): active; positive
- mutagenic call (Species/Cell Type: Aspergillus nidulans, Assay Type: Aneuploidy, chromosome aberrations, Assay Code: ASN+, Evaluation Type: Evaluation A (Pre-1980)): active; positive
- mutagenic call (Species/Cell Type: Aspergillus nidulans, Assay Type: Mitotic recombination, Assay Code: ASGT, Evaluation Type: Evaluation A (Pre-1980)): no conclusion
- mutagenic call (Species/Cell Type: Human lymphocytes, Assay Type: Sister-chromatid exchange (SCE) in vitro, Assay Code: SCL+D, Dose Response: With dose response, Evaluation Type: Evaluation B (Post-1980)): active; positive
- mutagenic call [2]: active; positive
- mutagenic call (Species/Cell Type: Mouse, Sex: Female, Assay Type: Spot test, gene mutation, Assay Code: MST+, Evaluation Type: Evaluation A (Pre-1980)): active; positive
- mutagenic call [3]: active; positive
- mutagenic call (Species/Cell Type: Saccharomyces cerevisiae, Assay Type: Mitotic recombination or gene conversion, Assay Code: YEH+, Evaluation Type: Evaluation A (Pre-1980)): active; positive

Compound: O=c1[nH]cnc2nc[nH]c12
- mutagenic call (Species/Cell Type: Allium cepa, Assay Type: Chromosome aberrations, Assay Code: ALC-, Evaluation Type: Evaluation A (Pre-1980)): inactive; negative
- mutagenic call [4]: inactive; negative
- mutagenic call (Species/Cell Type: Nonhuman, Assay Type: Sister-chromatid exchange (SCE) in vitro, Assay Code: SC2T, Evaluation Type: Evaluation B (Post-1980)): no conclusion

Compound: Cc1cc2nc3ccc(N(C)C)cc3nc2cc1N
- mutagenic call [5]: no conclusion
- mutagenic call (Species/Cell Type: Escherichia coli polA (W3119 vs P3478), Assay Type: Rec-assay, DNA effects (bacterial DNA repair), Assay Code: RE1T, Evaluation Type: Evaluation A (Pre-1980)): no conclusion
- mutagenic call (Species/Cell Type: Neurospora crassa, Assay Type: Aneuploidy, chromosome aberrations, Assay Code: NEN-, Evaluation Type: Evaluation A (Pre-1980)): inactive; negative
- mutagenic call [6]: active; positive

Compound: Cc1nc(-c2ccc([N+](=O)[O-])o2)cs1
- mutagenic call (Species/Cell Type: Nonhuman, Assay Type: Sister-chromatid exchange (SCE) in vitro, Assay Code: SC2+D, Dose Response: With dose response, Evaluation Type: Evaluation B (Post-1980)): active; positive
- mutagenic call [7]: active; positive

Compound: CCCCCC(=O)N(C)N=O
- mutagenic call [3]: active; positive

Compound: Cc1ccc(N)cc1
- mutagenic call (Species/Cell Type: Escherichia coli polA (W3110 vs P3478), Assay Type: Rec-assay, DNA effects (bacterial DNA repair), Assay Code: RE2-, Evaluation Type: Evaluation A (Pre-1980)): inactive; negative
- mutagenic call (Species/Cell Type: Escherichia coli polA (W3119 vs P3478), Assay Type: Rec-assay, DNA effects (bacterial DNA repair), Assay Code: RE1-, Evaluation Type: Evaluation A (Pre-1980)): inactive; negative
- mutagenic call (Species/Cell Type: Saccharomyces cerevisiae, Assay Type: Mitotic recombination or gene conversion, Assay Code: YEH+*, Activation: With metabolic activation, Evaluation Type: Evaluation A (Pre-1980)): active; positive
- mutagenic call (Species/Cell Type: Saccharomyces cerevisiae, Assay Type: Mitotic recombination or gene conversion, Assay Code: YEH-, Evaluation Type: Evaluation A (Pre-1980)): inactive; negative

Compound: NS(=O)(=O)c1ccccc1C(=O)O
- mutagenic call [8]: no conclusion

Compound: COc1cc2c[n+](C)c3c4cc5c(cc4ccc3c2cc1OC)OCO5
- mutagenic call [9]: no conclusion

Compound: CC(=O)Nc1nc(-c2csc(NC(C)=O)n2)cs1
- mutagenic call [9]: no conclusion

Compound: [Cl][Al]([Cl])[Cl]
- mutagenic call (Species/Cell Type: Bacillus subtilis (H17 vs M45), Assay Type: Rec-assay, spot test, DNA effects (bacterial DNA repair), Assay Code: REW-, Evaluation Type: Evaluation A (Pre-1980)): inactive; negative
- mutagenic call (Species/Cell Type: Nonhuman bone marrow, Assay Type: Chromosome aberrations, in vivo, Assay Code: CY#+, Evaluation Type: Evaluation A (Pre-1980)): active; positive
- mutagenic call (Species/Cell Type: Syrian hamster embryo (SA7/SHE) cells, Assay Type: Cell transformation, viral enhanced, Assay Code: CT7-, Evaluation Type: Evaluation A (Pre-1980)): inactive; negative

Compound: CC(=O)NNC(C)=O
- mutagenic call [8]: no conclusion

Compound: CSC\C=C(C)/C=C\C=C(C)/C=C\C1=C(C)CCCC1(C)C
- mutagenic call [2]: active; positive

Compound: ClN1CC1
- mutagenic call [10]: active; positive

Compound: CCOC(=O)c1ccc(N=NN(C)C)cc1
- mutagenic call (Species/Cell Type: Drosophila melanogaster, Assay Type: Sex-linked recessive lethal gene mutation, Assay Code: SRL+, Evaluation Type: Evaluation A (Pre-1980)): active; positive
- mutagenic call [3]: active; positive

Compound: CCOS(=O)(=O)CCl
- mutagenic call [10]: active; positive

Compound: CCOC(=O)Nc1ncc(-c2ccc(Cl)cc2)[nH]1
- mutagenic call (Species/Cell Type: Salmonella typhimurium, Assay Type: Forward and reverse gene mutation, host-mediated assay, Assay Code: HMAT, Evaluation Type: Evaluation A (Pre-1980)): no conclusion

Compound: O[C@H]1[C@@H]2O[C@@H]2c2cc3ccc4cccc5ccc(c2[C@@H]1O)c3c45
- mutagenic call (Species/Cell Type: Mouse prostate cells, Assay Type: Cell transformation, Assay Code: CTM-, Evaluation Type: Evaluation A (Pre-1980)): inactive; negative

Compound: O=C1CN(CO)C(=O)CN1CO
- mutagenic call [4]: inactive; negative

Compound: CCN(CC)c1ccc2c(-c3ccccc3C(=O)O)c3ccc(=[N+](CC)CC)cc-3oc2c1
- mutagenic call (Species/Cell Type: Bacillus subtilis (H17 vs M45T), Assay Type: Rec-assay, spot test, DNA effects (bacterial DNA repair), Assay Code: REXT, Evaluation Type: Evaluation A (Pre-1980)): no conclusion
- mutagenic call [5]: no conclusion
- call (Species/Cell Type: Nonhuman, Assay Code: CCGT, Evaluation Type: Evaluation A (Pre-1980)): no conclusion
- mutagenic call (Species/Cell Type: Nonhuman, Assay Type: Sister-chromatid exchange (SCE) in vivo, Assay Code: SC3T, Evaluation Type: Evaluation B (Post-1980)): no conclusion
- mutagenic call (Species/Cell Type: Saccharomyces cerevisiae, Assay Type: Mitotic recombination or gene conversion, Assay Code: YEC-, Evaluation Type: Evaluation A (Pre-1980)): inactive; negative
- mutagenic call [6]: active; positive

Compound: Cc1c2ccccc2cc2c3c(ccc12)C(O)C(O)C=C3 (configuration not stated)
- mutagenic call (Species/Cell Type: Mouse prostate cells, Assay Type: Cell transformation, Assay Code: CTM+, Evaluation Type: Evaluation A (Pre-1980)): active; positive
- mutagenic call [11]: active; positive
- mutagenic call [6]: active; positive

Compound: CC(=O)N(O)c1ccc2c(c1)Cc1ccccc1-2
- mutagenic call (Species/Cell Type: Chinese hamster lung (V79) cells, Assay Type: Forward gene mutation at the HPRT or ouabain locus, Assay Code: V79+, Evaluation Type: Evaluation A (Pre-1980)): active; positive
- mutagenic call [1]: active; positive
- mutagenic call [5]: no conclusion
- mutagenic call (Species/Cell Type: Escherichia coli polA (W3119 vs P3478), Assay Type: Rec-assay, DNA effects (bacterial DNA repair), Assay Code: RE1+, Evaluation Type: Evaluation A (Pre-1980)): active; positive
- mutagenic call (Species/Cell Type: Fischer rat embryo (RLV/1706) cells, Assay Type: Cell transformation, viral enhanced, Assay Code: CTR+, Evaluation Type: Evaluation A (Pre-1980)): active; positive
- mutagenic call (Species/Cell Type: Human diploid fibroblasts, Assay Type: Unscheduled DNA synthesis (UDS) in vitro, DNA effects, Assay Code: UDH+D, Dose Response: With dose response, Evaluation Type: Evaluation A (Pre-1980)): active; positive
- mutagenic call (Species/Cell Type: Human lymphocytes, Assay Type: Sister-chromatid exchange (SCE) in vitro, Assay Code: SCLT, Evaluation Type: Evaluation A (Pre-1980)): no conclusion
- mutagenic call (Species/Cell Type: Human, Assay Type: Sister-chromatid exchange (SCE) in vitro, Assay Code: SC1+, Evaluation Type: Evaluation B (Post-1980)): active; positive
- mutagenic call (Species/Cell Type: Human, Assay Type: Sister-chromatid exchange (SCE) in vitro, Assay Code: SC1T, Evaluation Type: Evaluation A (Pre-1980)): no conclusion
- mutagenic call (Species/Cell Type: Mouse (BALB/c-3T3) cells, Assay Type: Cell transformation, Assay Code: CTB+D, Dose Response: With dose response, Evaluation Type: Evaluation A (Pre-1980)): active; positive
- mutagenic call (Species/Cell Type: Mouse embryo (AKR/ME) cells, Assay Type: Cell transformation, Assay Code: CTK-, Evaluation Type: Evaluation A (Pre-1980)): inactive; negative
- mutagenic call (Species/Cell Type: Neurospora crassa, Assay Type: Reverse gene mutation, Assay Code: NER+, Evaluation Type: Evaluation A (Pre-1980)): active; positive
- call (Species/Cell Type: Nonhuman, Assay Code: CCG+, Evaluation Type: Evaluation A (Pre-1980)): active; positive
- mutagenic call [11]: active; positive
- mutagenic call (Species/Cell Type: Rat primary hepatocytes, Assay Type: Unscheduled DNA synthesis (UDS) in vitro, DNA effects, Assay Code: UDP+, Evaluation Type: Evaluation A (Pre-1980)): active; positive
- mutagenic call [3]: active; positive
- mutagenic call [7]: active; positive
- mutagenic call (Species/Cell Type: Syrian hamster embryo (SHE) cells, Assay Type: Cell transformation, clonal assay, Assay Code: CTC+D, Dose Response: With dose response, Evaluation Type: Evaluation A (Pre-1980)): active; positive
